In patent publication US20170334899A1, “AMINO-SUBSTITUTED ISOTHIAZOLES” (Bayer Pharma Aktiengesellschaft, priority 2014, published 2017):
pIC50: −log10 of the molar value.

How the values were obtained:
[1] = test system: human cervical tumor cell line HeLa (ATCC CCL-2); assay: SAC-Formation - Paclitaxel-Induced Assay; type: cell-based; settings: Homo sapiens, HeLa, 24 h, HeLa cells, paclitaxel 0.05 μM, test range 0.005 μM-20 μM, read-out: IC50 [mol/l] SAC-Formation - Paclitaxel-Induced Assay
Summary of the method: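 HeLa cells incubated overnight at 37° C, then given paclitaxel (0.05 μM final) plus test compound (0.005–20 μM, 0.5% DMSO) together for 24 h at 37° C. Fixed cells stained for phospho-histone H3 Ser10 (mitotic cells) and Hoechst 33342 (cell count); imaging-derived mitotic index fitted by four-parameter Hill equation.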

HeLa = assay: Proliferation assay (crystal violet), HeLa; type: cell-based; settings: Homo sapiens, HeLa, 96 h, HeLa cells; 4 days incubation; crystal violet staining; read-out: IC50 inhibition of proliferation, HeLa
Summary of the method: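 Tumor cells seeded at 1000–5000 cells/well in medium with 10% FCS; after 24 h, compounds added at 0.001–10 μM (0.5% DMSO) for 4 days. Cells fixed with glutaraldehyde, stained with crystal violet, dye dissolved in acetic acid and read at 595 nm. IC50 from 4-parameter fit, normalized to zero-point plate and untreated cells.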

SMILES	pIC50 [1]	pIC50 (HeLa)
Cc1nsc(Nc2cc(C#N)ccn2)c1C(=O)Nc1ccc(OC2CCN(C(=O)OC(C)(C)C)CC2)nc1 [Example 23, tert-Butyl 4-({5-[({5-[(4-cyanopyridin-2-yl)amino]-3-methyl-1,2-thiazol-4-yl}-carbonyl)amino]pyridin-2-yl}oxy)piperidine-1-carboxylate]	7.49	5.59
Cc1nsc(Nc2cc(C#N)ccn2)c1C(=O)Nc1cccc(C(=O)NC(C)C)c1 [Example 254, 5-[(4-cyanopyridin-2-yl)amino]-N-[3-(isopropylcarbamoyl)phenyl]-3-methyl-1,2-thiazole-4-carboxamide]	5.64	< 5.00
Cc1nsc(Nc2cnc(C(F)(F)F)cn2)c1C(=O)Nc1ccc(N(C)C)c(OCCCN(C)CCC(F)(F)F)c1 [Example 300, N-[4-(dimethylamino)-3-{3-[methyl(3,3,3-trifluoropropyl)amino]propoxy}phenyl]-3-methyl-5-{[5-(trifluoromethyl)pyrazin-2-yl]amino}-1,2-thiazole-4-carboxamide]	5.70	6.26
Cc1nsc(Nc2cnc(C(F)(F)F)cn2)c1C(=O)Nc1ccc(F)c(OCCCNCC(F)(F)F)c1 [Example 306, N-(4-fluoro-3-{3-[(2,2,2-trifluoroethyl)amino]propoxy}phenyl)-3-methyl-5-{[5-(trifluoromethyl)pyrazin-2-yl]amino}-1,2-thiazole-4-carboxamide]	7.02	6.24
Cc1nsc(Nc2cncc(C(F)(F)F)n2)c1C(=O)Nc1ccc(OCCO)nc1 [Example 276, N-[6-(2-hydroxyethoxy)pyridin-3-yl]-3-methyl-5-{[6-(trifluoromethyl)pyrazin-2-yl]amino}-1,2-thiazole-4-carboxamide]	5.72	5.31
Cc1nsc(Nc2cnc3ccccc3n2)c1C(=O)Nc1cccc(NS(=O)(=O)C2CN(CC(F)(F)F)C2)c1 [Example 285, 3-methyl-5-(quinoxalin-2-ylamino)-N-[3-({[1-(2,2,2-trifluoroethyl)azetidin-3-yl]sulfonyl}amino)phenyl]-1,2-thiazole-4-carboxamide]	5.21	< 5.00
Cc1nsc(Nc2cncc(C(F)(F)F)n2)c1C(=O)Nc1ccc(OCCCO)nc1 [Example 278, N-[6-(3-hydroxypropoxy)pyridin-3-yl]-3-methyl-5-{[6-(trifluoromethyl)pyrazin-2-yl]amino}-1,2-thiazole-4-carboxamide]	5.85	5.59
CCN1CCC(Oc2ccc(NC(=O)c3c(C)nsc3Nc3cc(C#N)ccn3)cn2)CC1 [Example 26, 5-[(4-Cyanopyridin-2-yl)amino]-N-{6-[(1-ethylpiperidin-4-yl)oxy]pyridin-3-yl}-3-methyl-1,2-thiazole-4-carboxamide]	4.70	5.00
Cc1nsc(Nc2cnc(C(F)(F)F)cn2)c1C(=O)Nc1ccc(OCCNCC(F)(F)F)nc1 [Example 322, 3-methyl-N-(6-{2-[(2,2,2-trifluoroethyl)amino]ethoxy}pyridin-3-yl)-5-{[5-(trifluoromethyl)pyrazin-2-yl]amino}-1,2-thiazole-4-carboxamide]	6.82	6.16

Results, then the molecule that gave them:

pIC50 [1]	pIC50 (HeLa)	SMILES
6.66	5.96	Cc1nsc(Nc2cnc(C(F)(F)F)cn2)c1C(=O)Nc1ccc(OCCNCC(F)F)nc1 [Example 305, N-(6-{2-[(2,2-difluoroethyl)amino]ethoxy}pyridin-3-yl)-3-methyl-5-{[5-(trifluoromethyl)pyrazin-2-yl]amino}-1,2-thiazole-4-carboxamide]
6.92	6.27	Cc1nsc(Nc2cnc(C(F)(F)F)cn2)c1C(=O)Nc1cccc(NC(=O)OC(C)(C)C)c1 [Example 284, 3-tert-butyl (3-{[(3-methyl-5-{[5-(trifluoromethyl)pyrazin-2-yl]amino}-1,2-thiazol-4-yl)carbonyl]amino}phenyl)carbamate]
5.46	5.49	Cc1nsc(Nc2cc(C#N)ccn2)c1C(=O)Nc1ccc(OC2CCN(CC(F)F)CC2)nc1 [Example 263, 5-[(4-cyanopyridin-2-yl)amino]-N-(6-{[1-(2,2-difluoroethyl)piperidin-4-yl]oxy}pyridin-3-yl)-3-methyl-1,2-thiazole-4-carboxamide]
6.40	5.82	Cc1nsc(Nc2cnc(C(F)(F)F)cn2)c1C(=O)Nc1ccc(C(=O)N2CCN(CC(F)(F)F)CC2)cc1 [Example 260, 3-methyl-N-(4-{[4-(2,2,2-trifluoroethyl)piperazin-1-yl]carbonyl}phenyl)-5-{[5-(trifluoromethyl)pyrazin-2-yl]amino}-1,2-thiazole-4-carboxamide]
5.46	5.21	Cc1nsc(Nc2cnc3ccccc3n2)c1C(=O)Nc1cccc(NS(=O)(=O)C2CCN(CC(F)F)CC2)c1 [Example 282, N-[3-({[1-(2,2-difluoroethyl)piperidin-4-yl]sulfonyl}amino)phenyl]-3-methyl-5-(quinoxalin-2-ylamino)-1,2-thiazole-4-carboxamide]
6.13	6.48	Cc1nsc(Nc2cnc(C(F)(F)F)cn2)c1C(=O)Nc1ccc(OC2CCN(CCC(F)(F)F)C2)nc1 (stereo not shown) [Example 298, 3-methyl-5-{[5-(trifluoromethyl)pyrazin-2-yl]amino}-N-(6-{[1-(3,3,3-trifluoropropyl)pyrrolidin-3-yl]oxy}pyridin-3-yl)-1,2-thiazole-4-carboxamide]
5.36	< 5.00	CCN1CCN(C(=O)c2ccc(NC(=O)c3c(C)nsc3Nc3cncc(C(F)(F)F)n3)cc2)CC1 [Example 275, N-{4-[(4-ethylpiperazin-1-yl)carbonyl]phenyl}-3-methyl-5-{[6-(trifluoromethyl)pyrazin-2-yl]amino}-1,2-thiazole-4-carboxamide]
7.25	6.46	Cc1nsc(Nc2cnc(C(F)(F)F)cn2)c1C(=O)Nc1ccc(OC2CCN(CC(F)(F)F)C2)nc1 (stereo not shown) [Example 297, 3-methyl-N-(6-{[1-(2,2,2-trifluoroethyl)pyrrolidin-3-yl]oxy}pyridin-3-yl)-5-{[5-(trifluoromethyl)pyrazin-2-yl]amino}-1,2-thiazole-4-carboxamide]
5.00	< 5.00	Cc1nsc(Nc2cnc(C(F)(F)F)cn2)c1C(=O)Nc1ccc(C(=O)NC2CN(CC(F)(F)F)C2)cc1 [Example 270, 3-methyl-N-(4-{[1-(2,2,2-trifluoroethyl)azetidin-3-yl]carbamoyl}phenyl)-5-{[5-(trifluoromethyl)pyrazin-2-yl]amino}-1,2-thiazole-4-carboxamide]
5.36	< 5.00	Cc1nsc(Nc2cnc(C(F)(F)F)cn2)c1C(=O)Nc1ccc(C(=O)NC2CCN(CC(F)F)CC2)cc1 [Example 259, N-(4-{[1-(2,2-difluoroethyl)piperidin-4-yl]carbamoyl}phenyl)-3-methyl-5-{[5-(trifluoromethyl)pyrazin-2-yl]amino}-1,2-thiazole-4-carboxamide]
6.82	6.06	Cc1nsc(Nc2cnc3ccccc3n2)c1C(=O)Nc1ccc(OC2CCN(CC(F)(F)F)CC2)nc1 [Example 21, 3-Methyl-5-(quinoxalin-2-ylamino)-N-(6-{[1-(2,2,2-trifluoroethyl)piperidin-4-yl]oxy}-pyridin-3-yl)-1,2-thiazole-4-carboxamide]
